Laboratory results published in PMC10048907, “Antennal Transcriptome Analysis of Olfactory Genes and Characterization of Odorant Binding Proteins in Odontothrips loti (Thysanoptera: Thripidae)” (International Journal of Molecular Sciences, 2023).
Where two headings read alike, the source gives them in different places.

Assays:
recombinant O.lotOBP6 = assay: Fluorescence competitive binding assay with 1-NPN probe; set-up: species or system Odontothrips loti; conditions: for IC50: 1× PBS pH 7.2~7.4, room temperature, triplicates, read-out: IC50 (concentration of ligand halving the initial fluorescence value of 1-NPN)
Procedure: Fluorescence was measured on a F-7000 fluorescence spectrophotometer (Hitachi, Tokyo, Japan) at room temperature with a 1 cm light path quartz cuvette and 10 nm slits for both excitation and emission. The fluorescent probe N-phenyl-1-naphthylamine (1-NPN) was excited at 337 nm, and emission was recorded between 370 and 520 nm. The pure protein was dissolved with 1× PBS (pH 7.2~7.4) at a final concentration of 2 μM. The ligands and 1-NPN were dissolved in methanol at the concentration of 1 mM.
To measure the affinity of 1-NPN to O.lotOBP6, a 2 μM solution of protein in 2 mL 1× PBS was titrated with 1-NPN to final concentrations of 0.25~8 μM. The affinity of ligands was measured by the titration of the O.lotOBP6/1-NPN complex at the concentration of 2 μM by adding ligand to final concentrations of 0.25~10 μM. The dissociation constants of the competitors were calculated by the equation Ki = IC50/(1 + [1-NPN]/K1-NPN), where IC50 is the concentration of ligands halving the initial fluorescence value of 1-NPN, [1-NPN] is the free concentration of 1-NPN, and K1-NPN is the dissociation constant of the complex O.lotOBP6/1-NPN. Experiments were performed in triplicates. GraphPad Prism 7.0 was used to perform nonlinear regression analysis on the standard curve and the dissociation curve.

[1] = test system: Megalurothrips usitatus adults; set-up: method as in PMID 32246573; conditions: field trials, cited from earlier work
adult O. loti = assay: Y-tube olfactometer choice tests with volatiles; assay type: in vivo, Odontothrips loti; conditions: volatile 10 ng/μL in paraffin oil vs paraffin oil control, chi-square test; for Response of male adult O. loti in Y-tube olfactometer: male adults
Procedure: In the behavioral assays, the female and male adults were reared together, while 3–5 days old female and male adults were collected separately by reproductive morphology. Eleven ligands with high binding affinities to O.lotOBP6/1-NPN complex based on fluorescence binding assays were used in the test. The responses of female and male O. loti to 11 volatiles (Table 3) were measured derived from M. sativa (Liu Y-Q, unpublished data) or semiochemicals previously used in Y-tube olfactometer bioassays. The glass Y-tube consisted of a stem and two arms (10 cm long, 1 cm in diameter) separated from each other at an angle of 75°. Air drawn into the olfactometer was first purified by active charcoal, moistened by distilled water in a gas-washing bottle, and split into two streams, with a flow rate of 50 mL min^−1. Two glass flasks (100 mL) provided test and control odor sources. Connections between the components of the olfactometer apparatus were made with Teflon tubes. Olfactometer experiments were carried out in a dark room at 26 ± 1 °C. Light was provided by a LED light (28 W), which was placed at the Y end of the olfactometer. The volatile sample of 10 ng/μL was dissolved in paraffin oil as the test odor source, with the control sample being paraffin oil. A single O. loti was introduced to the base tube of the Y-tube and observed for 5 min. When the test thrip entered a half-length of either arm of the Y-tube and stayed for 1 min, the choice was recorded. […] After five test thrips were tested, the odor sources were swapped to avoid directional effects in the apparatus. To avoid the effects of travelling residual odors of test thrips, ten test thrips tests were followed by a new Y-tube, which was cleaned with 75% ethanol and oven dried at 60 °C for 30 min. Sixty biological replicates were carried out for each female or male treatment. Results were analyzed by Chi-square test using IBM SPSS 22.

[2] = O.lotOBP6/1-NPN complex 2 μM, calculated from IC50, read-out: Ki (dissociation constant, Ki = IC50/(1 + [1-NPN]/K1-NPN))
[3] = competitive fluorescence binding curves, read-out: Ki (high binding affinities with the O.lotOBP6/1-NPN complex)

| Compound | IC50 (recombinant O.lotOBP6; O.lotOBP6/1-NPN complex 2 μM) | Ki (recombinant O.lotOBP6; [2]) | Ki (recombinant O.lotOBP6; [3]) | further results |
| --- | --- | --- | --- | --- |
| c1ccc(Nc2cccc3ccccc23)cc1 [1-NPN, N-phenyl-1-naphthylamine, reference compound] | – | – | – | Kd (recombinant O.lotOBP6; 2 μM protein titrated with 1-NPN 0.25~8 μM, Scatchard equation, read-out: Dissociation constant of recombinant O.lotOBP6 protein to 1-NPN): 1050 nM |
| CCCCC(CC)CO (centres unmarked) [2-Ethyl-1-hexanol] | 3.8 ± 0.31 µM | 1570 ± 130 nM | < 10000 nM | – |
| C=CCCC=O [4-Pentenal] | > 50 µM | – | – | – |
| CC(=O)OC/C=C(\C)CC/C=C(\C)CCC=C(C)C [(2E,6E)-farnesyl acetate] | – | – | – | Duration of attraction effect ([1]; dose of 60 μg): at least 6 days; Attractiveness to adults compared to the control [1]: significantly more attractive |
| CC/C=C\CCOC(=O)CCC [(Z)-3-Hexenyl butyrate] | 5.58 ± 0.38 µM | 2300 ± 160 nM | < 10000 nM | Response of male adult O. loti in Y-tube olfactometer (adult O. loti): significantly attracted |
| O=Cc1ccccc1 [Benzaldehyde] | 1.62 ± 0.12 µM | 670 ± 50 nM | < 10000 nM | – |
| Cc1cc(C(C)(C)C)c(O)c(C(C)(C)C)c1 [Butylated hydroxytoluene] | > 50 µM | – | – | – |
| C=C(C)[C@H]1CC=C(C)CC1 [D-Limonene] | > 50 µM | – | – | – |
| CCOC(=O)c1cccnc1 [Ethyl nicotinate] | > 50 µM | – | – | – |
| CC12CCC(CC1)C(C)(C)O2 [Eucalyptol] | 2.06 ± 0.05 µM | 850 ± 20 nM | < 10000 nM | – |
| C=CC(C)(O)CCC=C(C)C (centres unmarked) [Linalool] | 6.92 ± 0.24 µM | 2860 ± 100 nM | < 10000 nM | – |
| CCCCCCCCC=O [Nonanal] | 1.4 ± 0.09 µM | 580 ± 40 nM | < 10000 nM | – |
| O=Cc1ccccc1O [Salicylaldehyde] | 1.1 ± 0.01 µM | 450 nM | < 10000 nM | – |
| CCCCCCCCCCCCC [Tridecane] | 2.6 ± 0.44 µM | 1070 ± 180 nM | < 10000 nM | – |
| Cc1cccc(C)c1 [m-Xylene] | 8.41 ± 0.31 µM | 3470 ± 130 nM | < 10000 nM | – |
| COc1ccc(C=O)cc1 [p-Anisaldehyde] | 4.59 ± 0.64 µM | 1890 ± 260 nM | < 10000 nM | – |
| C=C(C)C1CCC(C)C(=O)C1 (centres unmarked) [p-Menth-8-en-2-one] | 0.34 ± 0.03 µM | 140 ± 10 nM | < 10000 nM | Response of female adult O. loti in Y-tube olfactometer (adult O. loti; female adults): significantly attracted; Response of male adult O. loti in Y-tube olfactometer (adult O. loti): significantly attracted |
| CC1=CCC2CC1C2(C)C (stereo not drawn) [α-Pinene] | > 50 µM | – | – | – |
